ChEMBL document CHEMBL5465560, “Selectivity Literature for EUbOPEN Chemogenomic Library” (2024)

How the values were obtained:
[1] = biological target: T1, Tyrosine-protein kinase ABL2 (Homo sapiens, UniProt P42684); experiment: (§1) Selectivity interaction (Radiometric assay (Reaction Biology)) EUB0000121b ABL2; conditions: at 10 µM
[2] = biological target: T1, Tyrosine-protein kinase ABL2; experiment: as §1
[3] = biological target: Calcium/calmodulin-dependent protein kinase type IV (Homo sapiens, UniProt Q16566); experiment: Selectivity interaction (Radiometric assay (Reaction Biology)) EUB0000121b CAMK4
[4] = biological target: CDK1/Cyclin E (Homo sapiens) (UniProt P06493+P24864); experiment: Selectivity interaction (NanoBRET assay in HEK293T cells) EUB0000121b CDK1; assay type: cell-based; conditions: HEK-293T, at 10 µM
[5] = biological target: CDK10/Cyclin L2 (Homo sapiens) (UniProt Q15131+Q96S94); experiment: Selectivity interaction (NanoBRET assay in HEK293T cells) EUB0000121b CDK10; assay type: cell-based; conditions: HEK-293T, at 10 µM
[6] = biological target: CDK11A/Cyclin L2 (Homo sapiens) (UniProt Q9UQ88+Q96S94); experiment: Selectivity interaction (NanoBRET assay in HEK293T cells) EUB0000121b CDK11A; assay type: cell-based; conditions: HEK-293T, at 10 µM
[7] = biological target: CDK11B/Cyclin L2 (Homo sapiens) (UniProt P21127+Q96S94); experiment: Selectivity interaction (NanoBRET assay in HEK293T cells) EUB0000121b CDK11B; assay type: cell-based; conditions: HEK-293T, at 10 µM
[8] = biological target: CDK12/Cyclin K (Homo sapiens) (UniProt O75909+Q9NYV4); experiment: Selectivity interaction (NanoBRET assay in HEK293T cells) EUB0000121b CDK12; assay type: cell-based; conditions: HEK-293T, at 10 µM
[9] = biological target: Cyclin-dependent kinase 13/Cyclin-K (Homo sapiens) (UniProt Q14004+O75909); experiment: Selectivity interaction (NanoBRET assay in HEK293T cells) EUB0000121b CDK13; assay type: cell-based; conditions: HEK-293T, at 10 µM
[10] = biological target: Cyclin-dependent kinase 14/Cyclin-Y (Homo sapiens) (UniProt O94921+Q8ND76); experiment: Selectivity interaction (NanoBRET assay in HEK293T cells) EUB0000121b CDK14; assay type: cell-based; conditions: HEK-293T, at 10 µM
[11] = biological target: CDK15/Cyclin Y (Homo sapiens) (UniProt Q96Q40+Q8ND76); experiment: Selectivity interaction (NanoBRET assay in HEK293T cells) EUB0000121b CDK15; assay type: cell-based; conditions: HEK-293T, at 10 µM
[12] = biological target: Cyclin-Y/Cyclin-dependent kinase 16 (Homo sapiens) (UniProt Q00536+Q8ND76); experiment: Selectivity interaction (NanoBRET assay in HEK293T cells) EUB0000121b CDK16; assay type: cell-based; conditions: HEK-293T, at 10 µM
[13] = biological target: CDK17/Cyclin-Y (Homo sapiens) (UniProt Q00537+Q8ND76); experiment: Selectivity interaction (NanoBRET assay in HEK293T cells) EUB0000121b CDK17; assay type: cell-based; conditions: HEK-293T, at 10 µM
[14] = biological target: CDK18/Cyclin Y (Homo sapiens) (UniProt Q07002+Q8ND76); experiment: Selectivity interaction (NanoBRET assay in HEK293T cells) EUB0000121b CDK18; assay type: cell-based; conditions: HEK-293T, at 10 µM
[15] = biological target: Cyclin-C/Cyclin-dependent kinase 19 (Homo sapiens) (UniProt Q9BWU1+P24863); experiment: Selectivity interaction (NanoBRET assay in HEK293T cells) EUB0000121b CDK19; assay type: cell-based; conditions: HEK-293T, at 10 µM
[16] = biological target: Cyclin-dependent kinase 2/cyclin E1 (Homo sapiens) (UniProt P24864+P24941); experiment: Selectivity interaction (NanoBRET assay in HEK293T cells) EUB0000121b CDK2; assay type: cell-based; conditions: HEK-293T, at 10 µM
[17] = biological target: Cyclin-dependent kinase 2/cyclin A (Homo sapiens, UniProt P24941); experiment: Selectivity interaction (LanthaScreen Eu Kinase Binding Assay (Invitrogen)) EUB0000121b CDK2; assay type: protein-complex assay
[18] = biological target: CDK20/Cyclin H (Homo sapiens) (UniProt P51946+Q8IZL9); experiment: Selectivity interaction (NanoBRET assay in HEK293T cells) EUB0000121b CDK20; assay type: cell-based; conditions: HEK-293T, at 10 µM
[19] = biological target: CDK3/Cyclin E (Homo sapiens) (UniProt P24864+Q00526); experiment: Selectivity interaction (NanoBRET assay in HEK293T cells) EUB0000121b CDK3; assay type: cell-based; conditions: HEK-293T, at 10 µM
[20] = biological target: Cyclin-dependent kinase 4/cyclin D1 (Homo sapiens) (UniProt P11802+P24385); experiment: Selectivity interaction (NanoBRET assay in HEK293T cells) EUB0000121b CDK4; assay type: cell-based; conditions: HEK-293T, at 10 µM
[21] = biological target: Cyclin-dependent kinase 5/CDK5 activator 1 (Homo sapiens) (UniProt Q00535+Q15078); experiment: Selectivity interaction (NanoBRET assay in HEK293T cells) EUB0000121b CDK5; assay type: cell-based; conditions: HEK-293T, at 10 µM
[22] = biological target: CDK6/cyclin D1 (Homo sapiens) (UniProt P24385+Q00534); experiment: Selectivity interaction (NanoBRET assay in HEK293T cells) EUB0000121b CDK6; assay type: cell-based; conditions: HEK-293T, at 10 µM
CDK6/cyclin D3 = CDK6/cyclin D3 (Homo sapiens, UniProt Q00534); experiment: Selectivity interaction ( In-vitro potency (TR-FRET-based LANCE Ultra assay)) EUB0000121b CDK6; assay type: protein-complex assay
[23] = biological target: Cyclin-dependent kinase 7 (Homo sapiens, UniProt P50613); experiment: Selectivity interaction (NanoBRET assay in HEK293T cells) EUB0000121b CDK7; assay type: cell-based; conditions: HEK-293T, at 10 µM
CDK7/Cyclin H/MNAT1 [24] = biological target: T2, CDK7/Cyclin H/MNAT1 (Homo sapiens, UniProt P50613); experiment: Selectivity interaction (LanthaScreen Eu Kinase Binding Assay (Invitrogen)) EUB0000121b CDK7; assay type: protein-complex assay
CDK7/Cyclin H/MNAT1 [25] = biological target: T2, CDK7/Cyclin H/MNAT1; experiment: Selectivity interaction ( In-vitro potency (TR-FRET-based LANCE Ultra assay)) EUB0000121b CDK7; assay type: protein-complex assay
[26] = biological target: CDK8/Cyclin C (Homo sapiens) (UniProt P49336+P24863); experiment: Selectivity interaction (NanoBRET assay in HEK293T cells) EUB0000121b CDK8; assay type: cell-based; conditions: HEK-293T, at 10 µM
[27] = biological target: CDK9/Cyclin K (Homo sapiens) (UniProt P50750+O75909); experiment: Selectivity interaction (NanoBRET assay in HEK293T cells) EUB0000121b CDK9; assay type: cell-based; conditions: HEK-293T, at 10 µM
[28] = biological target: T3, Glycogen synthase kinase-3 alpha (Homo sapiens, UniProt P49840); experiment: (§2) Selectivity interaction (Radiometric assay (Reaction Biology)) EUB0000121b GSK3A; conditions: at 10 µM
[29] = biological target: T3, Glycogen synthase kinase-3 alpha; experiment: as §2
Target sequence in this assay (P49840 whole entry): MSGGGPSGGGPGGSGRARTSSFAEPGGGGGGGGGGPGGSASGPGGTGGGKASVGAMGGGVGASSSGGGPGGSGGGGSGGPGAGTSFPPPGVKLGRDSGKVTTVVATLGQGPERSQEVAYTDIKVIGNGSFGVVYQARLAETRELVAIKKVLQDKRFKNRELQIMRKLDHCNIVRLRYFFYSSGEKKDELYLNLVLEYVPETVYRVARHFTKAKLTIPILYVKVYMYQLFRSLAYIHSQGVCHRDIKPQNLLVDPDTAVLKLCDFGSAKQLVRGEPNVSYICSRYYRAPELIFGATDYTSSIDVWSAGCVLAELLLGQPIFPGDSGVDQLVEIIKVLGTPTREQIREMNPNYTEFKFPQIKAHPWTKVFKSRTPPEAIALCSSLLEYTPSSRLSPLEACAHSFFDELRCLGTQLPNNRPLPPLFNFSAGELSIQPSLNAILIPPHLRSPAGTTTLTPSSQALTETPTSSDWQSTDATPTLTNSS

[30] = biological target: T4, Mitogen-activated protein kinase kinase kinase kinase 4 (Homo sapiens, UniProt O95819); experiment: (§3) Selectivity interaction (Radiometric assay (Reaction Biology)) EUB0000121b MAP4K4; conditions: at 10 µM
[31] = biological target: T4, Mitogen-activated protein kinase kinase kinase kinase 4; experiment: as §3

T1 sequence (P42684 whole entry): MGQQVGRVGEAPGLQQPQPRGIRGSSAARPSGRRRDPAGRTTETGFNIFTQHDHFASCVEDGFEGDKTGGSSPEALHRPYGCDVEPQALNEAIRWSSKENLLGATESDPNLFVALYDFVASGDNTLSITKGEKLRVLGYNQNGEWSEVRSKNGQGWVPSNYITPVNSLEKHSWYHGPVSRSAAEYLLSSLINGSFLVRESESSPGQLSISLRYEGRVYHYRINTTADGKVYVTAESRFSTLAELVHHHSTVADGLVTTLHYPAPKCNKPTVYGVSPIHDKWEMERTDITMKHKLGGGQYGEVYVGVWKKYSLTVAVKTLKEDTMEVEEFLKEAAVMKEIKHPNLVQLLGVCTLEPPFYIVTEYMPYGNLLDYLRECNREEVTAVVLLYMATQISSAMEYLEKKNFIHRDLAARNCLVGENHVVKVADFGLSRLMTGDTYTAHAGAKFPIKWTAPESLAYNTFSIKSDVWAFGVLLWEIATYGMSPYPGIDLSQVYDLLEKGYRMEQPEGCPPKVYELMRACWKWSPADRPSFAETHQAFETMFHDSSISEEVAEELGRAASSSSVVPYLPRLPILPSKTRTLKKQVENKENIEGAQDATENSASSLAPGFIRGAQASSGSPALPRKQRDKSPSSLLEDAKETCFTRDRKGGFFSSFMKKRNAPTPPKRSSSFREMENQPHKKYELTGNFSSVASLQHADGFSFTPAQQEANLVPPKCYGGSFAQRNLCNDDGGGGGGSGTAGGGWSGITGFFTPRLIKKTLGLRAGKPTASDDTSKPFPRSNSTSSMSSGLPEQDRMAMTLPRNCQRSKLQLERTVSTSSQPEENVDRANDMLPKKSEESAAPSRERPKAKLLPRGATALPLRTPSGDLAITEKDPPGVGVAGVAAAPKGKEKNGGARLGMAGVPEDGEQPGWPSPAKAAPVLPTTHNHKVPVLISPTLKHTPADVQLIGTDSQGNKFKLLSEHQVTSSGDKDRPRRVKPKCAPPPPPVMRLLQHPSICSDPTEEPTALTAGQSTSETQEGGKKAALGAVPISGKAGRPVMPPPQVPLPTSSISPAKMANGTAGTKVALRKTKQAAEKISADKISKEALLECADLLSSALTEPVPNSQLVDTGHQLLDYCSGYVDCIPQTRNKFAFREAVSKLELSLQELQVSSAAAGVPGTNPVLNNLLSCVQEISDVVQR
T2 sequence (P51946 whole entry): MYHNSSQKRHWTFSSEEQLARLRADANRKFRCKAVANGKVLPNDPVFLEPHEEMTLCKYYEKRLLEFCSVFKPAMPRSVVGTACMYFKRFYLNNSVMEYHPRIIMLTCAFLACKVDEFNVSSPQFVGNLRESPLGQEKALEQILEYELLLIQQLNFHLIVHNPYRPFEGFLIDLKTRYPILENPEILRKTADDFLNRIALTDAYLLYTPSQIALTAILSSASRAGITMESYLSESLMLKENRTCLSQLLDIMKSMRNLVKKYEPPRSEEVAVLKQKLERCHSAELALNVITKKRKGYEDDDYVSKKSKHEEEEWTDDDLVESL
T2 sequence (P50613 whole entry): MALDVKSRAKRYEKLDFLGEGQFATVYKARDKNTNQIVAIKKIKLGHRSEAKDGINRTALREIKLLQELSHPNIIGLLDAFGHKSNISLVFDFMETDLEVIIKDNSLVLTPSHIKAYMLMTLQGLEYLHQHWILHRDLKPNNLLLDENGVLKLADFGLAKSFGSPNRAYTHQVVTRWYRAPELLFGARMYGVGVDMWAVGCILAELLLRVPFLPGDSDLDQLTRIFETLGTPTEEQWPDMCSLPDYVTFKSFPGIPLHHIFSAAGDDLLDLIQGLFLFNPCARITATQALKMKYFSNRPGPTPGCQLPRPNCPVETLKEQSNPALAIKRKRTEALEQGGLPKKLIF
T2 sequence (P51948 whole entry, further chain): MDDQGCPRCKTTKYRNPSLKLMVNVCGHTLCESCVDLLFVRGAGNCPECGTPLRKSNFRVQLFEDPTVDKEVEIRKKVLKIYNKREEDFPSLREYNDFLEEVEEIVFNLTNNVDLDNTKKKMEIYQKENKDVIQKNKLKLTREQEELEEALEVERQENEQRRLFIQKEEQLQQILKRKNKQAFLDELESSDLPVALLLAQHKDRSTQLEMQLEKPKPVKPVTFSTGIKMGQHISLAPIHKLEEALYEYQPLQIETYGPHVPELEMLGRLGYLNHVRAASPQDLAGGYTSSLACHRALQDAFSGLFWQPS
Sequence of Cyclin-dependent kinase 7 (P50613 whole entry): as the sequence (P50613 whole entry) above
Sequence of CDK6/cyclin D3 (P30281 whole entry): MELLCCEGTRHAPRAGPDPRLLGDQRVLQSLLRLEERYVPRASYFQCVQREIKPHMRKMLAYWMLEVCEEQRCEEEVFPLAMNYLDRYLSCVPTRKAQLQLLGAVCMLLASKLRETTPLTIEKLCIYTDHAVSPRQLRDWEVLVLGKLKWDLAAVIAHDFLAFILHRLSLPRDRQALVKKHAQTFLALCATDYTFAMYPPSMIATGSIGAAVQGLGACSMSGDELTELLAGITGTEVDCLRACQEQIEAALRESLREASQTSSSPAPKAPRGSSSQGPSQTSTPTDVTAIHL
Sequence of CDK6/cyclin D3 (Q00534 whole entry): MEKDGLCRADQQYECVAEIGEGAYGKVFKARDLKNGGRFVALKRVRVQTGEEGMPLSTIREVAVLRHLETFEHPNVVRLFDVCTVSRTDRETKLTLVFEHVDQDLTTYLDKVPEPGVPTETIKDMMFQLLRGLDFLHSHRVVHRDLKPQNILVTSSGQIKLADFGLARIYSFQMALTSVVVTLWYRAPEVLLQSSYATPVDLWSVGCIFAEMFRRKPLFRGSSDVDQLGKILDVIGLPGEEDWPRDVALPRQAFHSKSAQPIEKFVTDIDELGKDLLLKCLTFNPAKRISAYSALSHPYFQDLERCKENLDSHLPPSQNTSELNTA
Sequence of CDK1/Cyclin E (Homo sapiens) (P06493 whole entry, looked up): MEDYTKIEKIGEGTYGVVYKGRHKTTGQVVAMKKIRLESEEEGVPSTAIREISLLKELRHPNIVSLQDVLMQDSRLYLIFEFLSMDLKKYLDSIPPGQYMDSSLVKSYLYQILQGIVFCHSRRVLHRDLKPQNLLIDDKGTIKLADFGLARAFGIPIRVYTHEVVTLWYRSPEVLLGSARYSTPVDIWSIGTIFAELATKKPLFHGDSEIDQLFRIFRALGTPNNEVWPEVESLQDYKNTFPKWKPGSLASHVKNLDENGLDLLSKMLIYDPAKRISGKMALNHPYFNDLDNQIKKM
Sequence of CDK1/Cyclin E (Homo sapiens) (P24864 whole entry, looked up): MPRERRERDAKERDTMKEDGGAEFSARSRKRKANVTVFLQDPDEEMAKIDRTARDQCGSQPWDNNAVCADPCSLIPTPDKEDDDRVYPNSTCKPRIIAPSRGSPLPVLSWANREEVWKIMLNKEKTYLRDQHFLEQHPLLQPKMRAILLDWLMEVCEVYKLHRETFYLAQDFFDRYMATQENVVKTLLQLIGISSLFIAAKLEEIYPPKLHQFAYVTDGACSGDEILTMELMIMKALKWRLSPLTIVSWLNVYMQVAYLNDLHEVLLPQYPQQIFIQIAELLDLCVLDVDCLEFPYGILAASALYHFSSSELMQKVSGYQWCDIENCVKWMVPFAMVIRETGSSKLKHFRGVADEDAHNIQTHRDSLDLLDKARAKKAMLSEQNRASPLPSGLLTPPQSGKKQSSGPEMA
Sequence of CDK3/Cyclin E (Homo sapiens) (P24864 whole entry, looked up): as above
Sequence of CDK3/Cyclin E (Homo sapiens) (Q00526 whole entry, looked up): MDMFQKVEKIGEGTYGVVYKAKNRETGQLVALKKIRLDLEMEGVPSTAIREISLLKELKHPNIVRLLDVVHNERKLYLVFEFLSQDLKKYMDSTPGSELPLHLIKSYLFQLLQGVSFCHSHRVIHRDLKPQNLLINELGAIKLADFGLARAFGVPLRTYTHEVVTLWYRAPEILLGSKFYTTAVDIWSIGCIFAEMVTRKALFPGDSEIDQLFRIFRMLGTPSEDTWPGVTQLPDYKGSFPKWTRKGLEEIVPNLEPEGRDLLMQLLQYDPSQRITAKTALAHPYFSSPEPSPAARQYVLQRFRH
Sequence of Calcium/calmodulin-dependent protein kinase type IV (Q16566 whole entry): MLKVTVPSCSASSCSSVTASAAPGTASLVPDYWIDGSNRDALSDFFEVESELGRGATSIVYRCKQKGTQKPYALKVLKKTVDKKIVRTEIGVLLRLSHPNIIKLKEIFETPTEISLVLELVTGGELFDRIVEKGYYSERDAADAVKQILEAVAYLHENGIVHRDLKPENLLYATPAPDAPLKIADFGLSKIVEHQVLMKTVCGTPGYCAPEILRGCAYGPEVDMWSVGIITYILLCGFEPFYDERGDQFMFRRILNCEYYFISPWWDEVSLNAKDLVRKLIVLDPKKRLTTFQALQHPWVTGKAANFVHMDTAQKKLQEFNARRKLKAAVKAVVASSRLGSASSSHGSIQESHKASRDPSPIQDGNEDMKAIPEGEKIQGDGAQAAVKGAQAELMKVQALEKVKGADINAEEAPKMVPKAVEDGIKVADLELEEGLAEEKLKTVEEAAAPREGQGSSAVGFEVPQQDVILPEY

COc1ccccc1-c1cc(Nc2cccc(CS(N)(=O)=O)c2)ncn1
% of control [1]: 27%
IC50 [2]: 3.64 µM
IC50 [3]: > 20 µM
% of inhibition [4]: 31.6%
% of inhibition [5]: 6.6%
% of inhibition [6]: 7.5%
% of inhibition [7]: 10.2%
% of inhibition [8]: 22.1%
% of inhibition [9]: 10.2%
% of inhibition [10]: -2.3%
% of inhibition [11]: -1%
% of inhibition [12]: 14.8%
% of inhibition [13]: 19%
% of inhibition [14]: 8.7%
% of inhibition [15]: 11.4%
% of inhibition [16]: 18.7%
IC50 [17]: 1.01 µM
% of inhibition [18]: 14.5%
% of inhibition [19]: 27.7%
% of inhibition [20]: 44%
% of inhibition [21]: 11.4%
% of inhibition [22]: 38.7%
IC50 (CDK6/cyclin D3): > 10 µM
% of inhibition [23]: -9.3%
IC50 (CDK7/Cyclin H/MNAT1 [24]): 16 µM
IC50 (CDK7/Cyclin H/MNAT1 [25]): > 10 µM
% of inhibition [26]: 5.3%
% of inhibition [27]: 88.8%
% of control [28]: 9.5%
IC50 [29]: 1.46 µM
% of control [30]: 17.5%
IC50 [31]: 0.82 µM
